According to patent US7501523B2, “Method for preparing cucurbiturils” (NewSouth Innovations Pty Limited, priority 2003, dated 2009):

How the values were obtained:
[1] = association constant of methane in the cucurbituril; type: binding; settings: relative to decamethylcucurbit[5]uril
[2] = association constant of dioxane in the cucurbituril; type: binding; settings: relative to tetramethylcucurbit[2,4]uril
solubility in water = type: physicochemical; settings: compared with unsubstituted cucurbit[6]uril

dimethylcucurbit[1,4]uril
association constant of methane [1]: three times higher

unsubstituted cucurbit[6]uril
association constant of dioxane [2]: two times higher

α, δ-tetramethylcucurbit[2,4]uril
solubility in water (solubility in water): greater solubility in water than unsubstituted cucurbit[6]uril
